From patent US8796302B2 (priority 2004, dated 2014) come the findings set out here.

For test [1], the system named is dopaminergic neurons in PHOX^+/+ and PHOX^−/− mouse neuron-glia cultures. The experiment in a line: [3H]DA uptake in neuron-glia cultures of PHOX+/+ and PHOX−/− mice. In kind it is cell-based. The settings on record: DM 10^−14 M, LPS 10 ng/ml. The procedure:
To further study the role of ROS in DM-elicited neuroprotection, neuron-glia cultures were prepared from NADPH oxidase-deficient (PHOX^−/−) and wild-type (PHOX^+/+) mice.
Neurotoxicity was assessed by DA uptake as described in Example 1. TNFα production was measured by ELISA and iROS was determined by DCFDA as in Example 5. Results are expressed as a percentage of the control culture in FIG. 7A, pg/ml in FIG. 7B, and difference from control in FIG. 7C, respectively, and are the mean±S.E.M. of five individual experiments with triplicates in each experiment. *, P<0.05 compared with LPS culture.
The rat and mouse ventral mesencephalic neuron-glia cultures were prepared as in Example 1. […] DA neurotoxicity was measured by using the [^3H] DA uptake assay as in Example 1. The data are expressed as the percent of the control cultures and are the mean±SEM. The release of TNFα was measured with a commercially available enzyme-linked immunosorbent assay kit. *P<0.05, **P<0.01, compared to control. The amount of TNFα was measured as in Example 2.

Test [2] deals with CD-1 mice given LPS/GalN. Description: Serum ALT in LPS/GalN endotoxic shock. In kind it is in vivo, mouse. The settings on record: for serum ALT level: 12 hrs after LPS/GalN. The procedure: Endotoxic shock was induced in the mice by administering a single intraperitoneal dose of lipopolysaccharide/D-(+/−)Glactosomine (Sigma, St. Louis, Mo.) (LPS/GalN) (20 μg/700 mg/kg) in saline. To test whether DM has protective effects on septic shock, varying concentrations (6.25, 12.5 and 25 mg/kg) of DM were injected into the mice subcutaneously 30 min before, and 2, and 4 hr after the injection of LPS/GalN. Control mice received the same amount of saline. At different time points, the animals were killed, and serum and liver samples were collected.
To examine the therapeutic effects of DM, animals were treated with […] DM at 30 min before LPS/GalN injection, and 30, 60 and 120 min after LPS/GalN administration. Serum ALT was measured to evaluate the therapeutic effects of the DM. Survival rate was evaluated within 12 hours after endotoxin administration.
(§1) Serum alanine aminotransferase (ALT) activity was assayed as a marker of hepatocellular death using a commercially available kit (Infinite ALT, Sigma, St. Louis, Mo.). A portion of the liver was fixed in 10% neutral formalin, processed by standard histological techniques, stained with hematoxylin and eosin, and examined for morphological evidence of liver injury.

Test [3] concerns CD-1 mice given LPS/GalN. Description: Liver histology in LPS/GalN endotoxic shock. In kind it is in vivo, mouse. The procedure: as §1
Sections of the mice livers were stained with hematoxylin and eosin, and photomicrographs were taken at 100× magnification.

In another test the test system is CD-1 mouse Kupffer cells. Description: Superoxide and intracellular ROS in LPS-stimulated Kupffer cells. The conditions noted are these: LPS 10 ng/ml. In kind it is cell-based. The procedure:
Kupffer cell samples were collected by anesthetizing the CD-1 mice with pentobarbital anesthesia [60 mg/kg intraperitoneally (i.p.)]. The abdomen of the animals was shaved and opened, the portal vein was cannulated and perfused with Ca^2+- and Mg^2+-free Hanks' balanced salt solution (HBSS) at 37° C. for 5 min at a flow rate of 13 ml/min. Subsequently, the liver was perfused with HBSS containing 0.05% collagenase IV (Sigma Chemical, St. Louis, Mo.) at 37° C. for 5 min. After the liver was digested, it was excised and cut into small pieces in collagenase buffer. The suspension was filtered through nylon gauze mesh, and the filtrate was centrifuged at 450×g for 10 min at 4° C. Cell pellets were resuspended in buffer, parenchymal cells were removed by centrifugation at 50×g for 3 min, and the nonparenchymal cell fraction was washed twice with buffer. Cells were centrifuged on a density cushion of 50% of Percoll (Pharmacia, Upsala, Sweden) at 1,000×g for 15 min, and the Kupffer cell fraction was collected and washed again with buffer. The viability of the cells was determined by tryptan blue exclusion at >90%. The cells were seeded onto 24-well culture plates and cultured in RPMI 1640 (GIBCO Laboratories Life Technologies, Grand Island, N.Y.) supplemented with 10% fetal bovine serum and antibiotics (100 U/ml penicillin G and 100 μg/ml streptomycin sulfate) at 37° C. with 5% CO2. Non-adherent cells were removed after 2 hours by replacing media, and cells were cultured for 24 hours before the experiments.
The production of superoxide and intracellular ROS by the Kupffer cells were measured as in Example 5.

In another test the test system is primary rat microglia. Description: Microglia number (CyQUANT) in microglia-enriched cultures. In kind it is cell-based. The procedure: Primary rat microglia-enriched cultures were used to determine if VPA treatment affected the total number of microglia. Microglia cell number was determined as follows. Primary microglia-enriched cultures were prepared from the whole brains of 1-day-old rats as described previously. After one day in vitro were treated with the indicated concentrations of VPA (0.05, 0.1, 0.2, 0.4, 0.6, 0.8, 1.0, or 1.2 mM) for 48 h, or with 0.6 mM VPA for different times (6, 12, 24 or 48 h). […] The total number of microglia was counted by using the CyQUANT cell proliferation assay kit (Molecular Probes, Inc.).

In test [4] the test system is neurons in neuron-enriched cultures. Description: MAP-2 / TH immunostaining morphology of neuron-enriched cultures. The format is cell-based, rat. The settings on record: 7 days exposure; media conditioned 48 hours; VPA 0.6 mM. The procedure:
Neuron-enriched cultures were immunostained with MAP-2 for morphological examination. FIGS. 40A-40D show morphological features of neuron-enriched cultures were examined after incubation with vehicle (A), 0.6 mM VPA (B), ACM (C) or ACM-VPA (D) for 7 days and then immunocytostaining with MAP-2 antibody.
The immunostaining was carried out according to the following procedure. Formaldehyde (3.7%)-fixed cultures were treated with 1% hydrogen peroxide (10 min) followed by sequential incubation with blocking solution (30 min), primary antibody (overnight, 4° C.), biotinylated secondary antibody (2 hours), and ABC reagents (40 min) (Vector Laboratories, Burlingame, Calif.). The color development was achieved by the addition of 3,3′-diaminobenzidine. For morphological analysis, the images were recorded with an inverted microscope (Nikon, Tokyo, Japan) connected to a charge-coupled device camera (DAGE-MTI, Michigan City, Ind.) operated with the MetaMorph software (Universal Imaging Corporation, Downingtown, Pa.). For visual counting of TH-IR neurons, nine representative areas per well of the 24-well plate were counted under the microscope at 100× magnification.
To specifically visualize morphological changes in DA neurons, we immunostained neuron-enriched cultures with anti-TH antibody. […]

For the compound `COc1ccc2c(c1)[C@@]13CCCC[C@H]1[C@@H](C2)N(C)CC3` [DM, d-3-methoxy-N-methylmorphinan], the “LPS-induced reduction of [3H]-dopamine uptake” value in test [1] (PHOX+/+ mice) is reported as “significantly attenuated this decrease”; in test [1] (PHOX−/− mice) it was “failed to show any protective effect”. The “serum ALT level” value in the test with CD-1 mice given LPS/GalN [2] (DM 12.5 mg/kg) and in the test on CD-1 mice given LPS/GalN [2] (DM 25 mg/kg) was “about 25 % of LPS/GalN group” each time. Besides, in the test with CD-1 mice given LPS/GalN [2] (DM 30 min pre-treatment and 30, 60, 120 min post-treatments), the “time-dependent reduction of serum ALT level” value is reported as “the later the DM treatment, the less protective”. The “liver histology (hematoxylin and eosin)” value in the test with CD-1 mice given LPS/GalN [3] (100 pg/kg DM plus LPS/GalN) was “cell death is mild”; with CD-1 mice given LPS/GalN [3] (1 μg/kg DM plus LPS/GalN) it was “hepatic congestion and cell death are obvious”; in the test with CD-1 mice given LPS/GalN [3] (10 mg/kg DM plus LPS/GalN) it was “hepatic congestion and cell death are mild”. Also, the “liver pathological alterations (necrosis, apoptosis, swelling)” value in the test with CD-1 mice given LPS/GalN [3] (DM treatments, 12 hours after LPS/GalN) was “dramatically ameliorated”. Further, the figures for the extracellular superoxide production result in the test with CD-1 mouse Kupffer cells (DM 5 μM) and in the test on CD-1 mouse Kupffer cells (DM 10 μM) were “attenuated” and “significantly blunted”, respectively. For the same compound, the “intracellular superoxide production (iROS)” value is listed as “attenuated” in the test on CD-1 mouse Kupffer cells (DM 5 μM) and “significantly blunted” with CD-1 mouse Kupffer cells (DM 10 μM).
As to `CCCC(CCC)C(=O)O` [VPA, Valproic acid], the “number of microglia, concentration dependence” value in the test with primary rat microglia (VPA 0.2 mM to 1.2 mM, 48 h) was “robust decrease in microglia number”. The “number of microglia, time course” value in the test on primary rat microglia (VPA 0.6 mM, 6-48 h, significant effect at 24 h and 48 h) is on record as “time-dependently decreased the number of microglia”. Moreover, the loss of microglia result with primary rat microglia (VPA 0.8 mM, 48 h) is on record as “about 80%”. For the same compound, the “neurite outgrowth (MAP-2 immunostaining)” value in test [4] is listed as “Much smaller effects”.
